Measurements from the NIST ThermoML archive (doi:10.1016/j.fluid.2015.07.030).
± gives the expanded uncertainty stated by the source.

Experiment: refractive index (other wavelength) (dimensionless); xn = mol fraction of the nth substance listed
Settings: 293.15 K, 95.99 kPa, Liquid, Standard Abbe refractometry

Compound: OCCOCCOCCO [triethylene glycol] + O
- refractive index (Wavelength=404.7 nm, x2 = 0): 1.46928 ± 0.00033
- refractive index (Wavelength=404.7 nm, x2 = 0.1056): 1.46776 ± 0.00033
- refractive index (Wavelength=404.7 nm, x2 = 0.2069): 1.46585 ± 0.00032
- refractive index (Wavelength=404.7 nm, x2 = 0.3104): 1.46244 ± 0.00032
- refractive index (Wavelength=404.7 nm, x2 = 0.4844): 1.45861 ± 0.00032
- refractive index (Wavelength=404.7 nm, x2 = 0.5016): 1.45756 ± 0.00032
- refractive index (Wavelength=404.7 nm, x2 = 0.5952): 1.45069 ± 0.00032
- refractive index (Wavelength=404.7 nm, x2 = 0.6016): 1.45072 ± 0.00032
- refractive index (Wavelength=404.7 nm, x2 = 0.6788): 1.44395 ± 0.00032
- refractive index (Wavelength=404.7 nm, x2 = 0.7835): 1.4342 ± 0.00032
- refractive index (Wavelength=404.7 nm, x2 = 0.8184): 1.42884 ± 0.00032
- refractive index (Wavelength=404.7 nm, x2 = 0.8473): 1.42267 ± 0.00032
- refractive index (Wavelength=404.7 nm, x2 = 0.8719): 1.41529 ± 0.00032
- refractive index (Wavelength=404.7 nm, x2 = 0.8926): 1.40703 ± 0.00032
- refractive index (Wavelength=404.7 nm, x2 = 0.9106): 1.40148 ± 0.00032
- refractive index (Wavelength=404.7 nm, x2 = 0.9254): 1.39081 ± 0.00032
- refractive index (Wavelength=404.7 nm, x2 = 0.9303): 1.39206 ± 0.00031
- refractive index (Wavelength=404.7 nm, x2 = 0.9391): 1.38808 ± 0.00031
- refractive index (Wavelength=404.7 nm, x2 = 0.951): 1.38101 ± 0.00031
- refractive index (Wavelength=404.7 nm, x2 = 0.9599): 1.37477 ± 0.00031
- refractive index (Wavelength=404.7 nm, x2 = 0.9708): 1.36673 ± 0.00031
- refractive index (Wavelength=404.7 nm, x2 = 0.979): 1.36151 ± 0.00031
- refractive index (Wavelength=404.7 nm, x2 = 0.9867): 1.35527 ± 0.00031
- refractive index (Wavelength=404.7 nm, x2 = 0.9936): 1.34883 ± 0.00031
- refractive index (Wavelength=435.8 nm, x2 = 0): 1.46569 ± 0.00033
- refractive index (Wavelength=435.8 nm, x2 = 0.1056): 1.46418 ± 0.00033
- refractive index (Wavelength=435.8 nm, x2 = 0.2069): 1.46229 ± 0.00032
- refractive index (Wavelength=435.8 nm, x2 = 0.3104): 1.45892 ± 0.00032
- refractive index (Wavelength=435.8 nm, x2 = 0.4844): 1.45514 ± 0.00032
- refractive index (Wavelength=435.8 nm, x2 = 0.5016): 1.45412 ± 0.00032
- refractive index (Wavelength=435.8 nm, x2 = 0.5952): 1.44731 ± 0.00032
- refractive index (Wavelength=435.8 nm, x2 = 0.6016): 1.44734 ± 0.00032
- refractive index (Wavelength=435.8 nm, x2 = 0.6788): 1.4406 ± 0.00032
- refractive index (Wavelength=435.8 nm, x2 = 0.7835): 1.43091 ± 0.00032
- refractive index (Wavelength=435.8 nm, x2 = 0.8184): 1.42558 ± 0.00032
- refractive index (Wavelength=435.8 nm, x2 = 0.8473): 1.41949 ± 0.00032
- refractive index (Wavelength=435.8 nm, x2 = 0.8719): 1.41214 ± 0.00032
- refractive index (Wavelength=435.8 nm, x2 = 0.8926): 1.40391 ± 0.00032
- refractive index (Wavelength=435.8 nm, x2 = 0.9106): 1.39844 ± 0.00032
- refractive index (Wavelength=435.8 nm, x2 = 0.9254): 1.38783 ± 0.00032
- refractive index (Wavelength=435.8 nm, x2 = 0.9303): 1.38905 ± 0.00031
- refractive index (Wavelength=435.8 nm, x2 = 0.9391): 1.38514 ± 0.00031
- refractive index (Wavelength=435.8 nm, x2 = 0.951): 1.37811 ± 0.00031
- refractive index (Wavelength=435.8 nm, x2 = 0.9599): 1.37194 ± 0.00031
- refractive index (Wavelength=435.8 nm, x2 = 0.9708): 1.36396 ± 0.00031
- refractive index (Wavelength=435.8 nm, x2 = 0.979): 1.35879 ± 0.00031
- refractive index (Wavelength=435.8 nm, x2 = 0.9867): 1.35259 ± 0.00031
- refractive index (Wavelength=435.8 nm, x2 = 0.9936): 1.34624 ± 0.00031
- refractive index (Wavelength=486.1 nm, x2 = 0): 1.46151 ± 0.00033
- refractive index (Wavelength=486.1 nm, x2 = 0.1056): 1.46003 ± 0.00033
- refractive index (Wavelength=486.1 nm, x2 = 0.2069): 1.45817 ± 0.00032
- refractive index (Wavelength=486.1 nm, x2 = 0.3104): 1.45478 ± 0.00032
- refractive index (Wavelength=486.1 nm, x2 = 0.4844): 1.45102 ± 0.00032
- refractive index (Wavelength=486.1 nm, x2 = 0.5016): 1.45 ± 0.00032
- refractive index (Wavelength=486.1 nm, x2 = 0.5952): 1.44328 ± 0.00032
- refractive index (Wavelength=486.1 nm, x2 = 0.6016): 1.44332 ± 0.00032
- refractive index (Wavelength=486.1 nm, x2 = 0.6788): 1.4367 ± 0.00032
- refractive index (Wavelength=486.1 nm, x2 = 0.7835): 1.42716 ± 0.00032
- refractive index (Wavelength=486.1 nm, x2 = 0.8184): 1.42185 ± 0.00032
- refractive index (Wavelength=486.1 nm, x2 = 0.8473): 1.41582 ± 0.00032
- refractive index (Wavelength=486.1 nm, x2 = 0.8719): 1.40852 ± 0.00032
- refractive index (Wavelength=486.1 nm, x2 = 0.8926): 1.40033 ± 0.00032
- refractive index (Wavelength=486.1 nm, x2 = 0.9106): 1.39495 ± 0.00032
- refractive index (Wavelength=486.1 nm, x2 = 0.9254): 1.38446 ± 0.00032
- refractive index (Wavelength=486.1 nm, x2 = 0.9303): 1.38562 ± 0.00031
- refractive index (Wavelength=486.1 nm, x2 = 0.9391): 1.38176 ± 0.00031
- refractive index (Wavelength=486.1 nm, x2 = 0.951): 1.37479 ± 0.00031
- refractive index (Wavelength=486.1 nm, x2 = 0.9599): 1.36866 ± 0.00031
- refractive index (Wavelength=486.1 nm, x2 = 0.9708): 1.36077 ± 0.00031
- refractive index (Wavelength=486.1 nm, x2 = 0.979): 1.35566 ± 0.00031
- refractive index (Wavelength=486.1 nm, x2 = 0.9867): 1.34949 ± 0.00031
- refractive index (Wavelength=486.1 nm, x2 = 0.9936): 1.34314 ± 0.00031
- refractive index (Wavelength=546.1 nm, x2 = 0): 1.45803 ± 0.00033
- refractive index (Wavelength=546.1 nm, x2 = 0.1056): 1.45656 ± 0.00033
- refractive index (Wavelength=546.1 nm, x2 = 0.2069): 1.45473 ± 0.00032
- refractive index (Wavelength=546.1 nm, x2 = 0.3104): 1.45137 ± 0.00032
- refractive index (Wavelength=546.1 nm, x2 = 0.4844): 1.44764 ± 0.00032
- refractive index (Wavelength=546.1 nm, x2 = 0.5016): 1.44663 ± 0.00032
- refractive index (Wavelength=546.1 nm, x2 = 0.5952): 1.43997 ± 0.00032
- refractive index (Wavelength=546.1 nm, x2 = 0.6016): 1.44002 ± 0.00032
- refractive index (Wavelength=546.1 nm, x2 = 0.6788): 1.43344 ± 0.00032
- refractive index (Wavelength=546.1 nm, x2 = 0.7835): 1.42397 ± 0.00032
- refractive index (Wavelength=546.1 nm, x2 = 0.8184): 1.41872 ± 0.00032
- refractive index (Wavelength=546.1 nm, x2 = 0.8473): 1.41276 ± 0.00032
- refractive index (Wavelength=546.1 nm, x2 = 0.8719): 1.40547 ± 0.00032
- refractive index (Wavelength=546.1 nm, x2 = 0.8926): 1.39734 ± 0.00032
- refractive index (Wavelength=546.1 nm, x2 = 0.9106): 1.392 ± 0.00032
- refractive index (Wavelength=546.1 nm, x2 = 0.9254): 1.38156 ± 0.00032
- refractive index (Wavelength=546.1 nm, x2 = 0.9303): 1.38273 ± 0.00031
- refractive index (Wavelength=546.1 nm, x2 = 0.9391): 1.37891 ± 0.00031
- refractive index (Wavelength=546.1 nm, x2 = 0.951): 1.37198 ± 0.00031
- refractive index (Wavelength=546.1 nm, x2 = 0.9599): 1.36589 ± 0.00031
- refractive index (Wavelength=546.1 nm, x2 = 0.9708): 1.35803 ± 0.00031
- refractive index (Wavelength=546.1 nm, x2 = 0.979): 1.35294 ± 0.00031
- refractive index (Wavelength=546.1 nm, x2 = 0.9867): 1.34676 ± 0.00031
- refractive index (Wavelength=546.1 nm, x2 = 0.9936): 1.34052 ± 0.00032
- refractive index (Wavelength=587.6 nm, x2 = 0): 1.45619 ± 0.00033
- refractive index (Wavelength=587.6 nm, x2 = 0.1056): 1.45474 ± 0.00033
- refractive index (Wavelength=587.6 nm, x2 = 0.2069): 1.45293 ± 0.00032
- refractive index (Wavelength=587.6 nm, x2 = 0.3104): 1.44957 ± 0.00032
- refractive index (Wavelength=587.6 nm, x2 = 0.4844): 1.44586 ± 0.00032
- refractive index (Wavelength=587.6 nm, x2 = 0.5016): 1.44485 ± 0.00032
- refractive index (Wavelength=587.6 nm, x2 = 0.5952): 1.4382 ± 0.00032
- refractive index (Wavelength=587.6 nm, x2 = 0.6016): 1.43827 ± 0.00032
- refractive index (Wavelength=587.6 nm, x2 = 0.6788): 1.43171 ± 0.00032
- refractive index (Wavelength=587.6 nm, x2 = 0.7835): 1.4223 ± 0.00032
- refractive index (Wavelength=587.6 nm, x2 = 0.8184): 1.41706 ± 0.00032
- refractive index (Wavelength=587.6 nm, x2 = 0.8473): 1.41114 ± 0.00032
- refractive index (Wavelength=587.6 nm, x2 = 0.8719): 1.40386 ± 0.00032
- refractive index (Wavelength=587.6 nm, x2 = 0.8926): 1.39576 ± 0.00032
- refractive index (Wavelength=587.6 nm, x2 = 0.9106): 1.39044 ± 0.00032
- refractive index (Wavelength=587.6 nm, x2 = 0.9254): 1.38004 ± 0.00032
- refractive index (Wavelength=587.6 nm, x2 = 0.9303): 1.3812 ± 0.00031
- refractive index (Wavelength=587.6 nm, x2 = 0.9391): 1.37736 ± 0.00031
- refractive index (Wavelength=587.6 nm, x2 = 0.951): 1.37045 ± 0.00031
- refractive index (Wavelength=587.6 nm, x2 = 0.9599): 1.36436 ± 0.00031
- refractive index (Wavelength=587.6 nm, x2 = 0.9708): 1.35657 ± 0.00031
- refractive index (Wavelength=587.6 nm, x2 = 0.979): 1.35147 ± 0.00031
- refractive index (Wavelength=587.6 nm, x2 = 0.9867): 1.34532 ± 0.00031
- refractive index (Wavelength=587.6 nm, x2 = 0.9936): 1.33907 ± 0.00031
- refractive index (Wavelength=589.3 nm, x2 = 0): 1.45612 ± 0.00033
- refractive index (Wavelength=589.3 nm, x2 = 0.1056): 1.45467 ± 0.00033
- refractive index (Wavelength=589.3 nm, x2 = 0.2069): 1.45286 ± 0.00032
- refractive index (Wavelength=589.3 nm, x2 = 0.3104): 1.4495 ± 0.00032
- refractive index (Wavelength=589.3 nm, x2 = 0.4844): 1.4458 ± 0.00032
- refractive index (Wavelength=589.3 nm, x2 = 0.5016): 1.44479 ± 0.00032
- refractive index (Wavelength=589.3 nm, x2 = 0.5952): 1.43814 ± 0.00032
- refractive index (Wavelength=589.3 nm, x2 = 0.6016): 1.43821 ± 0.00032
- refractive index (Wavelength=589.3 nm, x2 = 0.6788): 1.43165 ± 0.00032
- refractive index (Wavelength=589.3 nm, x2 = 0.7835): 1.42224 ± 0.00032
- refractive index (Wavelength=589.3 nm, x2 = 0.8184): 1.417 ± 0.00032
- refractive index (Wavelength=589.3 nm, x2 = 0.8473): 1.41108 ± 0.00032
- refractive index (Wavelength=589.3 nm, x2 = 0.8719): 1.4038 ± 0.00032
- refractive index (Wavelength=589.3 nm, x2 = 0.8926): 1.3957 ± 0.00032
